± gives the expanded uncertainty stated by the source.
Assays:
[1] = 298.15 K; 101.33 kPa; Liquid
[2] = refractive index (Na D-line) (dimensionless); conditions: 298.15 K; 101.33 kPa; Liquid
[3] = xn = mol fraction of the nth substance listed; conditions: 298.15 K, 101 kPa, Liquid
[4] = excess molar enthalpy (molar enthalpy of mixing); xn = mol fraction of the nth substance listed; conditions: 298.15 K, 101 kPa, Liquid

CCCCOC(C)=O [butyl ethanoate]
Conditions | mass density [kg/m3] | refractive index
[1] | 876.4 ± 1.1 | –
[2] | – | 1.3918 ± 0.001

ClCCCCl [1,3-dichloropropane] + CCCCOC=O
Conditions | excess molar enthalpy [kcal/mol] | mass density [kg/m3]
[3], x2 = 0.0501 | – | 1161.72 ± 0.75
[3], x2 = 0.101 | – | 1144.33 ± 0.78
[3], x2 = 0.1527 | – | 1127.13 ± 0.81
[3], x2 = 0.2078 | – | 1109.19 ± 0.85
[3], x2 = 0.2601 | – | 1092.54 ± 0.89
[3], x2 = 0.3145 | – | 1075.53 ± 0.92
[3], x2 = 0.3712 | – | 1058.26 ± 0.96
[3], x2 = 0.487 | – | 1024.07 ± 1
[3], x2 = 0.6083 | – | 989.86 ± 1.1
[3], x2 = 0.6701 | – | 973.02 ± 1.2
[3], x2 = 0.7342 | – | 955.9 ± 1.2
[3], x2 = 0.7984 | – | 939.11 ± 1.3
[3], x2 = 0.8657 | – | 921.98 ± 1.3
[3], x2 = 0.9315 | – | 905.54 ± 1.4
[4], x2 = 0.046 | 0.00296 ± 0.000837 | –
[4], x2 = 0.0992 | 0.00421 ± 0.00086 | –
[4], x2 = 0.1566 | 0.00351 ± 0.00086 | –
[4], x2 = 0.2391 | 0.00153 ± 0.000789 | –
[4], x2 = 0.2953 | -0.00098 ± 0.000765 | –
[4], x2 = 0.3467 | -0.00392 ± 0.00086 | –
[4], x2 = 0.3972 | -0.00822 ± 0.001 | –
[4], x2 = 0.4442 | -0.013 ± 0.00115 | –
[4], x2 = 0.4874 | -0.0174 ± 0.00129 | –
[4], x2 = 0.5293 | -0.0205 ± 0.00139 | –
[4], x2 = 0.5696 | -0.0213 ± 0.00141 | –
[4], x2 = 0.6134 | -0.0219 ± 0.00141 | –
[4], x2 = 0.6636 | -0.0217 ± 0.00141 | –
[4], x2 = 0.7143 | -0.0213 ± 0.00141 | –
[4], x2 = 0.7798 | -0.0192 ± 0.00134 | –
[4], x2 = 0.8596 | -0.0142 ± 0.00117 | –
[4], x2 = 0.9334 | -0.00782 ± 0.00098 | –

CCCCOC=O [butyl methanoate] + ClCCCl
Conditions | excess molar enthalpy [kcal/mol] | mass density [kg/m3]
[3], x1 = 0.0423 | – | 1223.68 ± 0.61
[3], x1 = 0.0859 | – | 1202 ± 0.62
[3], x1 = 0.1303 | – | 1180.75 ± 0.64
[3], x1 = 0.1772 | – | 1159.35 ± 0.67
[3], x1 = 0.2251 | – | 1138.25 ± 0.7
[3], x1 = 0.2748 | – | 1117.45 ± 0.74
[3], x1 = 0.3271 | – | 1096.31 ± 0.78
[3], x1 = 0.382 | – | 1075.28 ± 0.83
[3], x1 = 0.4376 | – | 1054.83 ± 0.88
[3], x1 = 0.497 | – | 1034.05 ± 0.93
[3], x1 = 0.5604 | – | 1012.84 ± 0.99
[3], x1 = 0.6255 | – | 992.02 ± 1.1
[3], x1 = 0.6925 | – | 971.62 ± 1.1
[3], x1 = 0.7638 | – | 950.97 ± 1.2
[3], x1 = 0.8379 | – | 930.45 ± 1.3
[3], x1 = 0.9173 | – | 909.53 ± 1.3
[4], x1 = 0.0384 | 0.00172 ± 0.000789 | –
[4], x1 = 0.0884 | 0.000765 ± 0.000765 | –
[4], x1 = 0.1406 | -0.00378 ± 0.00086 | –
[4], x1 = 0.2002 | -0.0103 ± 0.00105 | –
[4], x1 = 0.254 | -0.018 ± 0.00129 | –
[4], x1 = 0.3052 | -0.026 ± 0.00155 | –
[4], x1 = 0.35 | -0.0329 ± 0.00177 | –
[4], x1 = 0.3874 | -0.0387 ± 0.00194 | –
[4], x1 = 0.4396 | -0.0436 ± 0.0021 | –
[4], x1 = 0.4751 | -0.0469 ± 0.0022 | –
[4], x1 = 0.5277 | -0.049 ± 0.00225 | –
[4], x1 = 0.5938 | -0.0454 ± 0.00215 | –
[4], x1 = 0.6645 | -0.0433 ± 0.00208 | –
[4], x1 = 0.741 | -0.0382 ± 0.00194 | –
[4], x1 = 0.8303 | -0.029 ± 0.00165 | –
[4], x1 = 0.9138 | -0.0176 ± 0.00129 | –

ClCCCCCCl [1,5-dichloropentane] + CCCCOC=O
Conditions | excess molar enthalpy [kcal/mol] | mass density [kg/m3]
[3], x2 = 0.0616 | – | 1083.81 ± 0.67
[3], x2 = 0.126 | – | 1071.76 ± 0.72
[3], x2 = 0.1909 | – | 1059.46 ± 0.77
[3], x2 = 0.2522 | – | 1047.68 ± 0.82
[3], x2 = 0.3138 | – | 1035.64 ± 0.88
[3], x2 = 0.3757 | – | 1023.39 ± 0.93
[3], x2 = 0.4364 | – | 1011.18 ± 0.98
[3], x2 = 0.4966 | – | 998.9 ± 1
[3], x2 = 0.5548 | – | 986.84 ± 1.1
[3], x2 = 0.6137 | – | 974.47 ± 1.1
[3], x2 = 0.6701 | – | 962.48 ± 1.2
[3], x2 = 0.7247 | – | 950.68 ± 1.2
[3], x2 = 0.7822 | – | 938.09 ± 1.2
[3], x2 = 0.8374 | – | 925.86 ± 1.3
[3], x2 = 0.8906 | – | 913.92 ± 1.3
[3], x2 = 0.9443 | – | 901.66 ± 1.4
[4], x2 = 0.069 | 0.0113 ± 0.0011 | –
[4], x2 = 0.1384 | 0.0179 ± 0.00129 | –
[4], x2 = 0.2122 | 0.023 ± 0.00146 | –
[4], x2 = 0.2809 | 0.025 ± 0.00151 | –
[4], x2 = 0.3459 | 0.025 ± 0.00151 | –
[4], x2 = 0.4058 | 0.0233 ± 0.00146 | –
[4], x2 = 0.4619 | 0.0205 ± 0.00139 | –
[4], x2 = 0.4922 | 0.0168 ± 0.00127 | –
[4], x2 = 0.5374 | 0.0124 ± 0.00112 | –
[4], x2 = 0.5877 | 0.0111 ± 0.00108 | –
[4], x2 = 0.6417 | 0.00825 ± 0.001 | –
[4], x2 = 0.7001 | 0.00729 ± 0.00098 | –
[4], x2 = 0.7618 | 0.00571 ± 0.000908 | –
[4], x2 = 0.8234 | 0.00366 ± 0.00086 | –
[4], x2 = 0.8876 | 0.00206 ± 0.000813 | –
[4], x2 = 0.9487 | 0.00105 ± 0.000765 | –

CCCCOC(=O)CCC [butyl butanoate]
Conditions | mass density [kg/m3] | refractive index
[1] | 864.84 ± 0.98 | –
[2] | – | 1.404 ± 0.001

ClCCCCCCCl [1,6-dichlorohexane] + CCCCOC=O
Conditions | excess molar enthalpy [kcal/mol] | mass density [kg/m3]
[3], x2 = 0.0782 | – | 1052.81 ± 1.1
[3], x2 = 0.1483 | – | 1042.74 ± 1.2
[3], x2 = 0.2157 | – | 1032.73 ± 1.2
[3], x2 = 0.2827 | – | 1022.46 ± 1.2
[3], x2 = 0.3478 | – | 1012.18 ± 1.2
[3], x2 = 0.4104 | – | 1002.02 ± 1.2
[3], x2 = 0.5319 | – | 981.37 ± 1.3
[3], x2 = 0.5893 | – | 971.18 ± 1.3
[3], x2 = 0.6457 | – | 960.88 ± 1.3
[3], x2 = 0.7539 | – | 940.28 ± 1.4
[3], x2 = 0.8053 | – | 930.03 ± 1.4
[3], x2 = 0.9044 | – | 909.61 ± 1.4
[3], x2 = 0.9513 | – | 899.53 ± 1.4
[4], x2 = 0.0701 | 0.0129 ± 0.00115 | –
[4], x2 = 0.1508 | 0.0227 ± 0.00143 | –
[4], x2 = 0.2299 | 0.0298 ± 0.00167 | –
[4], x2 = 0.3026 | 0.0332 ± 0.00177 | –
[4], x2 = 0.371 | 0.0338 ± 0.00179 | –
[4], x2 = 0.434 | 0.0322 ± 0.00174 | –
[4], x2 = 0.491 | 0.0291 ± 0.00165 | –
[4], x2 = 0.5401 | 0.0255 ± 0.00153 | –
[4], x2 = 0.5778 | 0.0221 ± 0.00143 | –
[4], x2 = 0.6131 | 0.02 ± 0.00136 | –
[4], x2 = 0.6659 | 0.0173 ± 0.00127 | –
[4], x2 = 0.7195 | 0.016 ± 0.00124 | –
[4], x2 = 0.7775 | 0.0137 ± 0.00117 | –
[4], x2 = 0.8372 | 0.0105 ± 0.00108 | –
[4], x2 = 0.8968 | 0.00693 ± 0.000956 | –
[4], x2 = 0.9528 | 0.00313 ± 0.000837 | –

CCCCOC=O [butyl methanoate]
Conditions | mass density [kg/m3] | refractive index
[1] | 888.17 ± 1.6 | –
[2] | – | 1.387 ± 0.0012

ClCCCCCl [1,4-dichlorobutane] + CCCCOC=O
Conditions | excess molar enthalpy [kcal/mol] | mass density [kg/m3]
[3], x2 = 0.0582 | – | 1119.16 ± 0.7
[3], x2 = 0.1167 | – | 1104.56 ± 0.75
[3], x2 = 0.1724 | – | 1090.7 ± 0.79
[3], x2 = 0.2316 | – | 1075.99 ± 0.84
[3], x2 = 0.286 | – | 1062.54 ± 0.88
[3], x2 = 0.345 | – | 1047.97 ± 0.92
[3], x2 = 0.4055 | – | 1033.06 ± 0.97
[3], x2 = 0.522 | – | 1004.48 ± 1.1
[3], x2 = 0.5808 | – | 990.11 ± 1.1
[3], x2 = 0.6408 | – | 975.5 ± 1.1
[3], x2 = 0.6992 | – | 961.32 ± 1.2
[3], x2 = 0.76 | – | 946.59 ± 1.2
[3], x2 = 0.8183 | – | 932.5 ± 1.3
[3], x2 = 0.8774 | – | 918.24 ± 1.3
[3], x2 = 0.9363 | – | 904.07 ± 1.4
[4], x2 = 0.049 | 0.00688 ± 0.000956 | –
[4], x2 = 0.1112 | 0.0112 ± 0.0011 | –
[4], x2 = 0.1816 | 0.0137 ± 0.00117 | –
[4], x2 = 0.2472 | 0.0151 ± 0.00122 | –
[4], x2 = 0.3099 | 0.0138 ± 0.00117 | –
[4], x2 = 0.3701 | 0.0111 ± 0.00108 | –
[4], x2 = 0.4257 | 0.00784 ± 0.00098 | –
[4], x2 = 0.4725 | 0.00366 ± 0.00086 | –
[4], x2 = 0.5121 | 7.17e-05 | –
[4], x2 = 0.5471 | -0.00237 ± 0.000813 | –
[4], x2 = 0.5819 | -0.00519 ± 0.000908 | –
[4], x2 = 0.6245 | -0.00827 ± 0.001 | –
[4], x2 = 0.6718 | -0.0104 ± 0.00108 | –
[4], x2 = 0.7351 | -0.0123 ± 0.00112 | –
[4], x2 = 0.8039 | -0.0108 ± 0.00108 | –
[4], x2 = 0.8728 | -0.00805 ± 0.001 | –
[4], x2 = 0.9412 | -0.00421 ± 0.000884 | –

CCCCOC(=O)CC [butyl propanoate]
Conditions | mass density [kg/m3] | refractive index
[1] | 871.08 ± 0.96 | –
[2] | – | 1.399 ± 0.001
